Patent US10154973B2, “Quinone compounds for treating APE1 mediated diseases” (Indiana University Research and Technology Corporation, priority 2011, dated 2018)
Like-named read-outs stand apart in the source and are kept apart here.

Experiments:
Ape1 = Ape1 (Homo sapiens, UniProt P27695); assay: Redox EMSA assay; type: biochemical; conditions: electrophoresis, 0.02 mM DTT
Description: Conventional electrophoresis measuring Ape1 expression with 0.02 mM DTT is used to evaluate test compounds. […] Additional details are described in Fishel et al. Mol Cancer Ther. 2011 September; 10(9):1698-708 & Luo et al., Antioxid Redox Signal. 2008 November; 10(11):1853-67.

pGF-NFκB in Panc1 cells = assay: NFκB luciferase reporter assay in Panc1 pancreatic cancer cells; type: cell-based; conditions: Homo sapiens, PANC-1; luciferase activity 40 hrs after treatment; stable pGF-NFκB; read-out: Panel IC50
Description: (§1) Using lentiviral transcriptional reporter vectors, pGreenFire-NFkB, and pGreenFire-mCMV (negative control), from System Biosciences Inc. (Mountainview, Calif.), HEK293-T cells (Lonza, Inc. Allendale, N.J.) are transfected with the constructs and the media containing the viral supernatants is collected. To generate stably expressing reporter cell lines, cancer cell lines are infected with the viral supernatant and the cells are selected with puromycin ([…]) for 5 days. For the experiments, test compound is added and left on the cells before being assayed for luciferase activity. SKOV-3X, Panc1, and SF767 cells with the stable pGF-NFκB are treated with test compounds and assayed 40 hrs later for luciferase activity. Panc1 is a pancreatic cancer cell line; SF767 is the glioma cell line. IC50 values for test compounds are determined.

pGF-NFκB in SF767 cells = assay: NFκB luciferase reporter assay in SF767 glioma cells; type: cell-based; conditions: SF767 glioma cell line; luciferase activity 40 hrs after treatment; stable pGF-NFκB
Description: as §1

Hey-C2 = assay: Growth inhibition of ovarian cancer cells, Hey-C2; type: cell-based; conditions: ovarian cancer cell line
Description: (§2) Test compounds are assayed for growth inhibition ability against two 2 ovarian cancer cell lines. IC50 values for test compounds are determined.

Skov-3X = assay: Growth inhibition of ovarian cancer cells, Skov-3X; type: cell-based; conditions: ovarian cancer cell line
Description: as §2

Pharmacokinetics in mice = conditions: mouse, in vivo, approximate values
Description: The pharmacokinetics of test compounds are evaluated in mice using conventional methods, using oral (25 mg/kg), intraperitoneal (25 mg/kg), and intravenous routes (5 mg/kg) of administration. The following approximate Cmax (ng/mL) values for test compounds are determined.

NFkB = assay: Ape1/Ref1 transcription factor activation (NFkB transactivation); type: cell-based; conditions: Hey-C2, SF767, Panc1, and Skov-3X cell lines
Source text: The DNA base excision-repair pathway is responsible for the repair of DNA damage caused by oxidation/alkylation and protects cells against the effects of endogenous and exogenous agents. Removal of the damaged base creates a baseless (AP) site. AP endonuclease1 (Ape1) acts on this site to continue the BER-pathway repair. Failure to repair baseless sites leads to DNA strand breaks and cytotoxicity. In addition to the repair role, Ape1 also functions as a major redox-signaling factor to reduce and activate transcription factors such as AP1, p53, HIF-1alpha, and others that control the expression of genes important for cell survival and cancer promotion and progression. Thus, the Ape1 protein interacts with proteins involved in DNA repair, growth-signaling pathways, and pathways involved in tumor promotion and progression. Test compounds are evaluated for activity in decreasing transactivation of transcription factors.

PaCa-2 cells = assay: Pancreatic cancer cell xenograft; type: in vivo; conditions: orally 25 mg/kg twice daily for 18 days; PaCa-2 s.c. in NOD/SCID mice; FIG. 1
Description: PaCa-2 cells (2.5×10^6) in 0.2 mL of DMEM media were implanted s.c. into the right flanks of NOD/SCID mice. Test compounds are dissolved in 4% CremophorEL:EtOH (1:1)/saline solution or methylcellulose (0.5%, Sigma). When tumor volumes are greater than about 100 mm^3, test compounds are administered, such as orally, twice daily, 8 hours apart, at 25 mg/kg for 10 to 18 days (5 days on 2 days off schedule). Tumors are measured biweekly and followed for approximately 6 weeks. Tumor volumes are monitored by caliper measurement [tumor volume=length×(perpendicular width)2×0.5] and the average tumor volume in mm^3 for each treatment group is plotted. Treatment corresponds to days 1 to 15. Average tumor volume±SE for the vehicle compared to test compounds (n=7) are analyzed by statistical analysis. Additional details are described in Fishel et al. Mol Cancer Ther. 2011 September; 10(9):1698-708.

Chain of Ape1 (P27695 whole entry): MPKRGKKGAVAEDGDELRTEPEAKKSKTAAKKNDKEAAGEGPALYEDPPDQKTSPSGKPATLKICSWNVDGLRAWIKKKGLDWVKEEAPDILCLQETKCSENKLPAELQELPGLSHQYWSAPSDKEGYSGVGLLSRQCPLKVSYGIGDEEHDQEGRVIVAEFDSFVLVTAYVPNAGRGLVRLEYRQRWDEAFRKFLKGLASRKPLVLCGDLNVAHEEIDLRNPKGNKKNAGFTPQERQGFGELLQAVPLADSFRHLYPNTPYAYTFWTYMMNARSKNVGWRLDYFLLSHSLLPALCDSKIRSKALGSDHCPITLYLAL

Structure (SMILES)	concentration showing significant signal reduction (Ape1)	IC50 (pGF-NFκB in Panc1 cells)	IC50 (pGF-NFκB in SF767 cells)	IC50 (Hey-C2)	IC50 (Skov-3X)	Cmax (Pharmacokinetics in mice; intravenous 5 mg/kg, read-out: IV Cmax)	Cmax (Pharmacokinetics in mice; ip, intraperitoneal 25 mg/kg, read-out: IP Cmax)	Cmax (Pharmacokinetics in mice; oral 25 mg/kg, read-out: Oral Cmax)	Ape1 expression knock-down compared to E3330 (Ape1; in vitro)	% transactivation of NFkB (NFkB)	tumor volume compared to untreated control (PaCa-2 cells)
CCCC(=CC1=C(OC)C(=O)c2ccccc2C1=O)C(=O)NOC [Example 5d]	–	7 µM	10 µM	11 µM	10 µM	–	–	–	–	–	–
COC1=C(C=C(C)C(=O)N(C)C)C(=O)c2ccccc2C1=O [Example 5a]	–	5 µM	10 µM	18 µM	17 µM	200 ng/mL	2000 ng/mL	200 ng/mL	–	–	–
CCCC(=CC1=C(OC)C(=O)c2ccccc2C1=O)C(=O)N(CC)CC [Example 5c]	–	8 µM	18 µM	25 µM	30 µM	–	–	–	–	–	–

Further lines, with some results ahead:

concentration showing significant signal reduction (Ape1)	IC50 (pGF-NFκB in Panc1 cells)	IC50 (pGF-NFκB in SF767 cells)	IC50 (Hey-C2)	IC50 (Skov-3X)	Cmax (Pharmacokinetics in mice; intravenous 5 mg/kg, read-out: IV Cmax)	Cmax (Pharmacokinetics in mice; ip, intraperitoneal 25 mg/kg, read-out: IP Cmax)	Cmax (Pharmacokinetics in mice; oral 25 mg/kg, read-out: Oral Cmax)	Structure (SMILES)	Ape1 expression knock-down compared to E3330 (Ape1; in vitro)	% transactivation of NFkB (NFkB)	tumor volume compared to untreated control (PaCa-2 cells)
30 µM	52 µM	80 µM	~100 µM	~100 µM	–	–	–	CCCCCCCCC/C(=C\C1=C(C)C(=O)C(OC)=C(OC)C1=O)C(=O)O [Example E3330, reference compound]	–	–	–
20 µM	9 µM	12 µM	28 µM	38 µM	–	–	–	CCCCCCCCCC(=CC1=C(C)C(=O)C(OC)=C(OC)C1=O)C(=O)NOC [Example 6a]	improved expression knock-down compared to E3330	significant decrease	significant reduction in tumor volume
–	10 µM	18 µM	22 µM	32 µM	–	–	–	CCCCCCCCCC(=CC1=C(C)C(=O)C(OC)=C(OC)C1=O)C(=O)N(C)OC [Example 6b]	–	–	–
